The values below come from US20240383906A1, “5-SUBSTITUTED PYRIDINE-2(1H)-KETONE COMPOUND AND USE THEREOF” (JIANGSU KANION PHARMACEUTICAL CO., LTD., priority 2021, published 2024).

Data set [1] deals with HuPrime® gastric cancer GA3055 subcutaneous xenograft model. Put plainly: In vivo drug efficacy in HuPrime gastric cancer GA3055 subcutaneous xenograft model. The settings on record: BID. On the set-up: species or system female BALB/C nude mice. The text has this: • GA3055 tumor-bearing mice were provided by Crown Bioscience (Taicang) Co., Ltd.
Tumor tissue was collected from tumor-bearing mice of the HuPrime® gastric cancer GA3055 xenograft model, and cut into tumor pieces with a diameter of 2 to 3 mm for subcutaneous inoculation in the right anterior scapular region of BALB/c nude mice. When the average tumor volume in the tumor-bearing mice reached approximately 150 mm^3, the mice were randomly grouped. The coefficient of variation (CV) of the tumor volume within each group was calculated using the formula CV=SD/MTV×100%, and should be less than 30%. Administration started on the day of grouping (the tumor volume was measured on the day of grouping). The day of grouping was defined as day 0.
Before the start of administration, all animals were weighed and the tumor volume was measured using a caliper. Given that the volume of the tumor could affect the effectiveness of the treatment, a random grouping design method was used. The mice were grouped based on the volume of their tumors to ensure similar tumor volumes across different groups. Grouping was done using StudyDirector™ (version 3.1.399.19, supplier: Studylog System, Inc., S. San Francisco, CA, USA).
The “Matched distribution” random grouping method was chosen for grouping, which could reflect the smallest intergroup differences at the tumor volume level. This algorithm matched the individual measurements of all selected animals with the average value of all selected animals. Firstly, those paired animals whose average values were close to the average value of all selected animals were chosen, and then they were allocated to groups so that the average value of the group matched (or was as close as possible to) the average value of all selected animals. The final average value of the measurements of each group was as close as possible to the final average value of the other groups.
After the inoculation of tumor cells, routine monitoring included the growth of the tumor and the impact of the treatment on the normal behavior of the animals. Specific content included the activity of the experimental animals, food and water intake, weight gain or loss, and any abnormalities in their eyes, fur, and other conditions. Any clinical symptoms observed during the experiment were recorded in the original data. After the start of administration, the weight of the mice and the size of the tumor were measured twice a week. […] The original data was directly imported into the software after being measured by a balance and caliper, and any changes in the data were recorded in this software. […]
All experimental results were expressed as the mean tumor volume±SEM (standard error of the mean). […] All data were analyzed using SPSS 18.0. […]

The nature of data set [2]: Pharmacokinetic evaluation in mice. It is filed as in vivo. Particulars: male CD-1 mice. On the procedure: • CD-1 mice (male, 7 to 9 weeks old, Shanghai SLAC)
The pharmacokinetic characteristics of the compound in rodents were tested using a standard protocol after intravenous injection (IV) and oral (PO) administration. In the experiment, mice were given a single intravenous injection and oral administration. The solvent for the intravenous injection was water. The solvent for oral administration was 0.5% hydroxypropyl methylcellulose. This project involved four male CD-1 mice. Two of the mice were administered a dose of 0.5 mg/kg via intravenous injection. Plasma samples were collected at 0 hours (before administration) and at 0.083, 0.25, 0.5, 1, 2, 4, 8, and 24 hours after administration. The other two mice were administered a dose of 2.5 mg/kg via oral gavage. Plasma samples were collected at 0 h (before administration) and at 0.25, 0.5, 1, 2, 4, 8, and 24 hours after administration. Whole blood samples were collected within 24 hours, centrifuged at 3000 g for 15 minutes, and the supernatant was separated to obtain plasma samples. Four times the volume of acetonitrile solution containing an internal standard was added to precipitate the protein. After centrifugation, the supernatant was collected, an equal volume of water was added, and it was centrifuged again to collect the supernatant for sampling. The plasma concentration was quantitatively analyzed by LC-MS/MS analysis method, and the pharmacokinetic parameters were calculated, such as peak concentration (Cmax), clearance rate (CL), half-life (T1/2), volume of distribution at steady state (Vdss), area under drug-time curve (AUC0-last), bioavailability (F).

Each structure is given as a SMILES string.

In data set [1] (5 mg/Kg, 37 days), `Cn1cc(-c2cnc(CNc3nccn4c(-c5cc(F)cc(F)c5)cnc34)cn2)ccc1=O` [Compound 2] displayed a T/C % of 12.97% and a TGI % of 94.6%. Moreover, in data set [1] (10 mg/Kg), the T/C % is recorded as 10.89% and the TGI % is 96.8%. Besides, the F in data set [2] (IV 0.5 mg/kg, PO 2.5 mg/kg) was 29.4%. The clearance – broadly, a measure of how efficiently the substance is removed, as volume per time – in data set [2] (mouse, plasma, IV 0.5 mg/kg) is 0.322 L/h/kg. In data set [2] (mouse, plasma, IV 0.5 mg/kg, read-out: T1/2 (IV) (converted)), the half-life was 5.99 h. The Vd in data set [2] (mouse, plasma, IV 0.5 mg/kg, read-out: Vdss) turned out to be 0.568 L/kg. In data set [2] (mouse, plasma, PO 2.5 mg/kg, read-out: AUC0-last (PO)), the AUC(0-t) came to 20.5 µM·h. The Cmax (in general, the maximum level reached in the sampled fluid or tissue) in data set [2] (mouse, plasma) turned out to be 1.76 µM.
